Laboratory results published in US6825317B2, “Cyclic tetrapeptide derivatives and pharmaceutical uses thereof” (Sumitomo Pharmaceuticals Company, Limited, priority 1999, dated 2004).
Non-standard residues stand in square brackets, D forms with d. Residues, ends and D or L forms follow the SMILES beside them. ξ: configuration not given here. *: point of attachment. Asu = N[C@@H](CCCCCC(=O)O)C(=O)O; Cha = N[C@@H](CC1CCCCC1)C(=O)O; Ile(3ξ) = CCC(C)[C@H](N)C(=O)O; dCha = N[C@H](CC1CCCCC1)C(=O)O; Aic = NC1(C(=O)O)Cc2ccccc2C1; Ac8c = NC1(C(=O)O)CCCCCCC1; Ac7c = NC1(C(=O)O)CCCCCC1; Pip = O=C(O)[C@@H]1CCCCN1; dPip = O=C(O)[C@H]1CCCCN1; Ac6c = NC1(C(=O)O)CCCCC1; Ac5c = NC1(C(=O)O)CCCC1; Aib = CC(C)(N)C(=O)O; NHOH = ON*

Assays:
[1] = tested on: MHC class-I molecule expression on B16/BL6 cells; test: MHC class-I molecule expression-promoting activity; assay type: cell-based, mouse; conditions: concentration giving twice-promoted MHC class-I expression relative to untreated control, 72 hours culture with compound
Method: The cyclic tetrapeptide derivatives of the present invention were investigated for their MHC class-I molecule expression-promoting actions in the following test.
The cancer cells used were mouse melanoma, B16/BL6 cells, provided by the National Cancer Institute, U.S.A. Said cells were cultured in MEM media supplemented with 10% FBS at 37° C., 5% CO2 in an humidified incubator.
A compound to be tested was preliminarily dissolved in dimethylsulfoxide (DMSO) and adjusted to a concentration of 100 mM or 10 mM (stock solution). […] Trichostatin A was used as a positive control compound for MHC class-I molecule expression-promoting action due to histone deacetylase enzyme-inhibiting activity. DMSO used as a solvent for the stock solution of a test compound would inevitably be introduced into the medium in the test; however, it had been separately confirmed not to affect the test results in amounts within the range used in the test.
Said B16/BL6 cells were inoculated on a 96-well microplate at a cell density of 5000 cells per well, each well containing 200 μAl of said medium. After culturing for 24 hours, 10 μl of a sample containing a given amount of the stock solution of a test compound which had been diluted in the medium was added and cultured for additional 72 hours. Thereafter, each well was washed once with PBS (phosphate buffered saline) and floating cells and the medium were removed. Then, the well was treated with 0.1% glutaraldehyde solution for 3 minutes to fix the cells.
The amount of MHC class-I molecule expressed on the surface of the fixed cells was measured as follows. Anti-H-2K^bD^bD^d antibody, which is an antibody against mouse MHC class-I molecule (commercially available from Meiji Milk Co., Ltd), was used as a primary antibody, biotinylated anti-mouse IgG+M (commercially available from Chemicon) was used as a secondary antibody, and streptavidin-galactosidase conjugate (commercially available from BRL) was reacted as a labeling enzyme. The amount of the thus labeled enzyme-galactosidase was measured in a microplate reader by recording the fluorescent intensity (excitation: 365 nm, fluorescence: 450 nm) resulting from the enzyme reaction product using 4-methylumbelliferyl-D-galactoside (commercially available from Nacalai Tesque) as a substrate. A fluorescence intensity measured for another well to which no test compound was added and which was treated in a similar manner without adding said primary antibody was used as a background level. The value obtained by subtracting said background level from the actually measured value (an apparent value including the background level) was defined as a true measurement reflecting the amount of expressed MHC class-I molecule.
A group without the addition of any test compound was used as a control group and the measurement of MHC class-I molecule expressed in said group was used as a standard value. The amount of MHC class-I molecule expressed at an addition concentration of each test compound was shown as a relative amount based on said standard value set to one (1). The strength of each test compound activity was compared at a concentration which provides twice-promoted expression (C×2).

[2] = tested on: histone deacetylase partially purified from B16/BL6 cells; test: Inhibitory activity against histone deacetylase enzyme; assay type: biochemical, mouse; conditions: crude enzyme from B16/BL6 cells, [3H]acetylated histone H4 peptide substrate, 37 for 3 hours; read-out: 50% inhibitory concentration
Method: The preparation of histone deacetylase was performed essentially according to the method of Yoshida et al. (J. Biol. Chem., 265, 17174-17179, 1990). The enzyme to be used was partially purified from B16/BL6 cells. The cells were suspended in HDA buffer (15 mM potassium phosphate, 5% glycerol, 0.2 mM EDTA, 1 mM 2-mercaptoethanol, pH 7.5), homogenized and centrifuged (2500× g, 10 min) to collect the nuclei, which were then homogenized in the same buffer containing 1 M (NH4)2SO4. After ultrasonic disruption and centrifugation, the concentration of (NH4)2SO4 in the collected supernatant was increased to 3.5 M to precipitate histone deacetylase. This precipitate was re-dissolved in HDA buffer, subjected to gel filtration to replace the solvent by HDA buffer, and used as a crude histone deacetylase enzyme solution.
As a substrate, a synthetic substrate peptide, [^3H]acetylated histone H4 peptide was used. This [^3H]acetylated histone H4 peptide was obtained by synthesizing the N-terminal peptide of histone H4; […] (SEQ ID NO: 1: the C-terminal being cysteine) and then radioactively acetylating with ^3H-acetic anhydride.
An assay was performed by incubating the synthetic substrate solution and the enzyme solution at 37 for 3 hours in the presence of a compound to be tested (reaction volume, 100 μl). The reaction was stopped by adding 25 μl of 1 M HCl and 0.2 M acetic acid, and [^3H]acetate cleaved by the enzyme reaction was extracted with ethyl acetate for radioactivity measurement. For a control group, the same procedure was repeated without addition of any test compound to the reaction system. Each test compound was evaluated for a concentration required to cause 50% inhibition of the histone deacetylase enzyme activity in the control group (50% inhibitory concentration).

IC50 [2] | SMILES | Twice promoting concentration Cx2 [1]
1.12 nM | O=C(CCCCC[C@@H]1NC(=O)[C@H]2CCCN2C(=O)[C@H](Cc2ccccc2)NC(=O)C2(CCc3ccccc32)NC1=O)NO (single isomer, unassigned) [CHAP82, cyclo(-L-Asu(NHOH)-1Ain(f)-L-Phe-D-Pro-)] | 2.69 nM
1.95 nM | O=C(CCCCC[C@@H]1NC(=O)[C@H]2CCCN2C(=O)[C@H](Cc2ccccc2)NC(=O)C2(CCc3ccccc32)NC1=O)NO (single isomer, unassigned) [CHAP83, cyclo(-L-Asu(NHOH)-1Ain(s)-L-Phe-D-Pro-)] | 2.29 nM
5.17 nM | CC1(C)NC(=O)[C@H](CCCCCC(=O)NO)NC(=O)[C@H]2CCCN2C(=O)[C@H](Cc2ccccc2)NC1=O [CHAP15, cyclo(-L-Asu(NHOH)-Aib-L-Phe-D-Pro-), reference compound] (cyclo([Aib]F[dP][Asu](NHOH))) | 33.2 nM
3.02 nM | O=C(CCCCC[C@@H]1NC(=O)[C@H]2CCCN2C(=O)[C@H](Cc2ccccc2)NC(=O)C2(CCCC2)NC1=O)NO [CHAP54, cyclo(-L-Asu(NHOH)-Acc5-L-Phe-D-Pro-)] (cyclo([Ac5c]F[dP][Asu](NHOH))) | 5.67 nM
2.19 nM | O=C(CCCCC[C@@H]1NC(=O)[C@H]2CCCN2C(=O)[C@H](Cc2ccccc2)NC(=O)C2(CCCCC2)NC1=O)NO [CHAP55, cyclo(-L-Asu(N-HOH)-Acc6-L-Phe-D-Pro-)] (cyclo([Ac6c]F[dP][Asu](NHOH))) | 5.38 nM
2.14 nM | O=C(CCCCC[C@@H]1NC(=O)[C@H]2CCCN2C(=O)[C@H](Cc2ccccc2)NC(=O)C2(CCCCCC2)NC1=O)NO [CHAP71, cyclo(-L-Asu(NHOH)-Acc7-L-Phe-D-Pro-)] (cyclo([Asu](NHOH)[Ac7c]F[dP])) | 2.76 nM
3.99 nM | O=C(CCCCC[C@@H]1NC(=O)[C@H]2CCCN2C(=O)[C@H](Cc2ccccc2)NC(=O)C2(CCCCCCC2)NC1=O)NO [CHAP76, cyclo(-L-Asu(NHOH)-Acc8-L-Phe-D-Pro-)] (cyclo([Asu](NHOH)[Ac8c]F[dP])) | 1.88 nM
3.88 nM | O=C(CCCCC[C@@H]1NC(=O)[C@@H]2CCCCN2C(=O)[C@H](CC2CCCCC2)NC(=O)[C@@H](CC2CCCCC2)NC1=O)NO [CHAP78, cyclo(-L-Asu(NHOH)-D-Cha-L-Cha-L-Pip-)] (cyclo([Asu](NHOH)[dCha][Cha][Pip])) | 2.35 nM
3.9 nM | O=C(CCCCC[C@@H]1NC(=O)[C@H]2CCCCN2C(=O)[C@H](CC2CCCCC2)NC(=O)[C@@H](CC2CCCCC2)NC1=O)NO [CHAP79, cyclo(-L-Asu(NHOH)-D-Cha-L-Cha-D-Pip-)] (cyclo([Asu](NHOH)[dCha][Cha][dPip])) | 2.79 nM
0.98 nM | O=C(CCCCC[C@@H]1NC(=O)[C@H]2CCCN2C(=O)[C@H](Cc2ccccc2)NC(=O)C2(Cc3ccccc3C2)NC1=O)NO [CHAP81, cyclo(-L-Asu(NHOH)-2Ain-L-Phe-D-Pro-)] (cyclo([Aic]F[dP][Asu](NHOH))) | 1.29 nM
2.22 nM | CC(C)C[C@@H]1NC(=O)[C@@H](CC2CCCCC2)NC(=O)[C@H](CCCCCC(=O)NO)NC(=O)[C@@H]2CCCCN2C1=O [CHAP84, cyclo(-L-Asu(NHOH)-D-Cha-L-Leu-L-Pip-)] (cyclo([Asu](NHOH)[dCha]L[Pip])) | 5.65 nM
1.96 nM | CC(C)C[C@@H]1NC(=O)[C@@H](CC2CCCCC2)NC(=O)[C@H](CCCCCC(=O)NO)NC(=O)[C@H]2CCCCN2C1=O [CHAP85, cyclo(-L-Asu(NHOH)-D-Cha-L-Leu-D-Pip-)] (cyclo([Asu](NHOH)[dCha]L[dPip])) | 2.26 nM
3.14 nM | CC[C@H](C)[C@@H]1NC(=O)[C@@H](CC2CCCCC2)NC(=O)[C@H](CCCCCC(=O)NO)NC(=O)[C@H]2CCCCN2C1=O [CHAP86, cyclo(-L-Asu(NHOH)-D-Cha-L-Ile-D-Pip-)] (cyclo([Asu](NHOH)[dCha]I[dPip])) | 3.29 nM
1.98 nM | CCC(C)[C@@H]1NC(=O)[C@@H](CC2CCCCC2)NC(=O)[C@H](CCCCCC(=O)NO)NC(=O)[C@@H]2CCCCN2C1=O (stereo partly drawn) [CHAP87, cyclo(-L-Asu(NHOH)-D-Cha-L-Ile-L-Pip-)] (cyclo([Asu](NHOH)[dCha][Ile(3ξ)][Pip])) | 5.39 nM
2.75 nM | O=C(CCCCC[C@@H]1NC(=O)[C@H]2CCCCN2C(=O)[C@H](Cc2ccccc2)NC(=O)C2(CCCCCCC2)NC1=O)NO [CHAP90, cyclo(-L-Asu(NHOH)-Acc8-L-Phe-D-Pip-)] (cyclo([Asu](NHOH)[Ac8c]F[dPip])) | 3.96 nM
1.2 nM | O=C(CCCCC[C@@H]1NC(=O)[C@H]2CCCCN2C(=O)[C@H](Cc2ccccc2)NC(=O)C2(Cc3ccccc3C2)NC1=O)NO [CHAP91, cyclo(-L-Asu(NHOH)-2Ain-L-Phe-D-Pip-)] (cyclo([Aic]F[dPip][Asu](NHOH))) | 2.48 nM
